In patent publication US11464780B2, “Pyrazolopyrimidine derivative and use thereof” (Simcere Pharmaceutical Co. Ltd., priority 2018, dated 2022):
Like-named read-outs stand apart in the source and are kept apart here.

Legend:
[1] = target: T1, BaF3 ETV6-NTRK3-G623R stably transfected cell line (Homo sapiens, UniProt Q16288, G623R, cells depend on it); test: Cell proliferation inhibition (CellTiter-Glo); assay type: cell-based; settings: 72 hours, read-out: The half maximal inhibitory concentration IC50 against cells, BaF3 ETV6-NTRK3-G623R
T1 construct: fused on or other part: P41212 (Transcription factor ETV6)

[2] = target: T2, Ba/F3 LMNA-NTRK1-G595R stably transfected cell line (Homo sapiens, UniProt P04629, G595R, cells depend on it); test: Cell proliferation inhibition (CellTiter-Glo); assay type: cell-based; settings: 72 hours, read-out: The half maximal inhibitory concentration IC50 against cells, Ba/F3 LMNA-NTRK1-G595R
T2 construct: fused on or other part: P02545 (Prelamin-A/C)

Ros-G2032R = target: T3, Ros-G2032R (Homo sapiens, UniProt P08922, G2032R); test: Kinase inhibitory activity (33P-ATP filter binding, Reaction Biology Corp.); assay type: biochemical; settings: read-out: The half maximal inhibitory concentration IC50 on the kinases, Ros-G2032R
T3 construct: purchased Reaction Biology Corp. (contract assay)
T3 sequence (P08922 28-2347 G2032R): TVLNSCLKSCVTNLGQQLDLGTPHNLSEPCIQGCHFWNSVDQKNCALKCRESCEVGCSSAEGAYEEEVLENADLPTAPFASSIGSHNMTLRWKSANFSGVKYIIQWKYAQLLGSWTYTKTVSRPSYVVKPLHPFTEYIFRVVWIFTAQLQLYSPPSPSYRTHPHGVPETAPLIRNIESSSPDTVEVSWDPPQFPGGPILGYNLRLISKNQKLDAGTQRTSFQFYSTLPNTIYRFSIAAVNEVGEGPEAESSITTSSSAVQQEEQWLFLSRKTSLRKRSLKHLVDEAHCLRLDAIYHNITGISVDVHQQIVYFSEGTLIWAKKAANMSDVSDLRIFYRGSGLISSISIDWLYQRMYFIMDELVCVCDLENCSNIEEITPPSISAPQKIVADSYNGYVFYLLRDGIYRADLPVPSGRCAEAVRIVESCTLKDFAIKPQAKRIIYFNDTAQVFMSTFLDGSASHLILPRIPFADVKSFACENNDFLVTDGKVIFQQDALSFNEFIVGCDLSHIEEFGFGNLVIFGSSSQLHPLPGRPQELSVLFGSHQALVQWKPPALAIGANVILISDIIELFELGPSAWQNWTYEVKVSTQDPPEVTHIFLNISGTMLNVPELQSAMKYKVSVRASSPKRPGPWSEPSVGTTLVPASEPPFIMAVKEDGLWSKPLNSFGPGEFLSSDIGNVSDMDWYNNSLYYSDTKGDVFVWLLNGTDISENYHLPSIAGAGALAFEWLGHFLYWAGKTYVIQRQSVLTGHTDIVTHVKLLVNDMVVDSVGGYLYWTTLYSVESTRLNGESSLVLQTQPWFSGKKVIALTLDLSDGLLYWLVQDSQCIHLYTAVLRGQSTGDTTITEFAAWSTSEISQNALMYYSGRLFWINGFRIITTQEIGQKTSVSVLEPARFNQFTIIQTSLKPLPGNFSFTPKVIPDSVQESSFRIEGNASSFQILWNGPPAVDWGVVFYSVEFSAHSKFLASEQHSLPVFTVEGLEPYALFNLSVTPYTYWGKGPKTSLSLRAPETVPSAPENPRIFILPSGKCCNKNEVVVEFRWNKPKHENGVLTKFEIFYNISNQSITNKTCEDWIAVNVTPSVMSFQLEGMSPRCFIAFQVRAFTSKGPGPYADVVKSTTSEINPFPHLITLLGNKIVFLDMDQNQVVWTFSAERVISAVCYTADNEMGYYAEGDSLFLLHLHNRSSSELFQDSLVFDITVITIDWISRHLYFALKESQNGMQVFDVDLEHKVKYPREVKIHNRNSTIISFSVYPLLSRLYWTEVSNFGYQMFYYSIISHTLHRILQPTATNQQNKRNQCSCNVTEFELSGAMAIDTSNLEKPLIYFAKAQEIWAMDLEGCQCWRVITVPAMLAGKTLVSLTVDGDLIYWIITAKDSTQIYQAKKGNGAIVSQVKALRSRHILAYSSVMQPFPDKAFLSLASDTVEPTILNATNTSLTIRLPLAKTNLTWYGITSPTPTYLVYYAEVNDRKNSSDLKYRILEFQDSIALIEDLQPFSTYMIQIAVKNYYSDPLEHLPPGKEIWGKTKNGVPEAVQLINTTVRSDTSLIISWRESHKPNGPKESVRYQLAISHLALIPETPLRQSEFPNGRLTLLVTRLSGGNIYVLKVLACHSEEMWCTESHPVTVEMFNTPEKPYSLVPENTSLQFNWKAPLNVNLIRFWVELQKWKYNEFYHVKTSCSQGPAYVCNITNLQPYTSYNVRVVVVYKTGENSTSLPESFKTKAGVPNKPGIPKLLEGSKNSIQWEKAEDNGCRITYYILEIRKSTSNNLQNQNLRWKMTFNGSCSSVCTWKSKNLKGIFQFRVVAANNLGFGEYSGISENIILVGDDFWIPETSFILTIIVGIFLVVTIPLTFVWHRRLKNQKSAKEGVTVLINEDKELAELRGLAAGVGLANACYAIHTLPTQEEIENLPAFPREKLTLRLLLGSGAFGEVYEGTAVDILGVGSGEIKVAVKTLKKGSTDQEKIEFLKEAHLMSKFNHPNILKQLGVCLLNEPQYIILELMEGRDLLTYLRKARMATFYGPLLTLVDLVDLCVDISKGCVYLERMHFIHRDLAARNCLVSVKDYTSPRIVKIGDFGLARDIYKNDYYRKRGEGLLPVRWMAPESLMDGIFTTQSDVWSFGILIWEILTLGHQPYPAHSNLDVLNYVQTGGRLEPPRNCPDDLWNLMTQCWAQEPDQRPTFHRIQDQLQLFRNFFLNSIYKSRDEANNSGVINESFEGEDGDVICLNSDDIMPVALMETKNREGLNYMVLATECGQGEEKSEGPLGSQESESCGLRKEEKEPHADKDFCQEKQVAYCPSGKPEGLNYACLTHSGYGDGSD
Description: (§1) The mixture was incubated at room temperature for 20 minutes. To the reaction mixture was added a certain concentration of ^33P-ATP to initiate the reaction, and then the mixture was incubated at room temperature for 120 minutes. The radioactivities of the reactants were determined by the method of filter binding. The final kinase activity was expressed as the ratio of the remaining kinase activity in the test sample to the kinase activity in the DMSO control group. The dose-effect curve was fitted by GraphPad software and the IC50 was calculated.

Ros1 = target: T4, Ros1 (Homo sapiens, UniProt P08922); test: as above; assay type: biochemical; settings: read-out: The half maximal inhibitory concentration IC50 on the kinases, Ros1
T4 construct: purchased Reaction Biology Corp. (contract assay)
T4 sequence (P08922 28-2347): as the sequence (P08922 28-2347 G2032R) above, with R2005G counted along it
Description: as §1

TrkC = target: T5, TrkC (Homo sapiens, UniProt Q16288); test: as above; assay type: biochemical; settings: read-out: The half maximal inhibitory concentration IC50 on the kinases, TrkC
T5 construct: purchased Reaction Biology Corp. (contract assay)
Description: as §1

TrkA-G667C = target: T6, TrkA-G667C (Homo sapiens, UniProt P04629, G667C); test: as above; assay type: biochemical; settings: read-out: The half maximal inhibitory concentration IC50 on the kinases, TrkA-G667C
T6 construct: purchased Reaction Biology Corp. (contract assay)
Description: as §1

TrkA-G595R = target: T7, TrkA-G595R (Homo sapiens, UniProt P04629, G595R); test: as above; assay type: biochemical; settings: read-out: The half maximal inhibitory concentration IC50 on the kinases, TrkA-G595R
T7 construct: purchased Reaction Biology Corp. (contract assay)
Description: as §1

TrkA = target: T8, TrkA (Homo sapiens, UniProt P04629); test: as above; assay type: biochemical; settings: read-out: The half maximal inhibitory concentration IC50 on the kinases, TrkA
T8 construct: purchased Reaction Biology Corp. (contract assay)
Description: as §1

[3] = target: T9, Ba/F3 LMNA-NTRK1-WT stably transfected cell line (Homo sapiens, UniProt P04629); test: Cell proliferation inhibition (CellTiter-Glo); assay type: cell-based; settings: 72 hours, read-out: The half maximal inhibitory concentration IC50 against cells, Ba/F3 LMNA-NTRK1-WT
T9 construct: fused on or other part: P02545 (Prelamin-A/C)
Description: Adenosine Tri-Phosphate (ATP) is an energy carrier shared by various life activities in nature, and is the smallest unit of energy storage and transfer. The CellTiter-Glo™ cell viability detection kit uses luciferase as the detection substance, and luciferase requires the participation of ATP during the process of luminescence. CellTiter-Glo™ reagent is added to cell culture medium, and the luminescent intensity is measured. The luminescent signal is directly proportional to the amount of ATP in the system, and ATP is positively related to the number of living cells. Therefore, by using the CellTiter-Glo kit to detect ATP content, cell proliferation can be detected. In this assay, the cell line is Ba/F3 LMNA-NTRK1-WT stably transfected cell line, with 5000 cells/well.
IC50 Determination Process:
1. Cell Culture and Inoculation
a) the cells in the logarithmic growth phase were harvested, and counted with a platelet counter. Trypan blue exclusion method was used to detect cell viability to ensure the cell viability was no less than 90%.
b) the cell concentration was adjusted; 90 μL of cell suspension was added respectively into a 96-well plate.
c) the cells in the 96-well plates was cultured under conditions of 37° C., 5% CO2 and 95% humidity overnight.
2. Drug Dilution and Administration
a) 10-fold drug solutions were prepared, the highest concentration was 10 μM, 9 concentrations, 3-fold diluted (refer to Appendix I). 10 μL of each drug solution was added to each well of the 96-well plate seeded with the cells in triplicate.
b) the cells in the 96-well plate added with the drug were cultured under conditions of 37° C., 5% CO2 and 95% humidity for 72 hours, and then CTG (cell proliferation) was performed.
a) CellTiter-Glo™ reagent was thawed, and the cell plate was equilibrated at room temperature for 30 minutes.
b) CellTiter-Glo™ reagent of a same volume was added to each well;
c) the cell plate was shaken on an orbital shaker for 5 minutes to lyse the cells.
d) the cell plate was placed at room temperature for 20 minutes to stabilize the luminescent signal.
e) the luminescent intensity was read.
GraphPad Prism 5.0 software was used to analyze the data, nonlinear S-curve regression was used to fit the data to obtain dose-effect curve, and IC50 value was calculated therefrom.

[4] = target: T10, Ba/F3 SLC34A2-ROS1-WT stably transfected cell line (Homo sapiens, UniProt P08922); test: Cell proliferation inhibition (CellTiter-Glo); assay type: cell-based; settings: 72 hours, read-out: The half maximal inhibitory concentration IC50 against cells, Ba/F3 SLC34A2-ROS1-WT
T10 construct: fused on or other part: O95436 (Sodium-dependent phosphate transport protein 2B)
T10 sequence (P08922 whole entry, stated change not applied, the tested form may be a part): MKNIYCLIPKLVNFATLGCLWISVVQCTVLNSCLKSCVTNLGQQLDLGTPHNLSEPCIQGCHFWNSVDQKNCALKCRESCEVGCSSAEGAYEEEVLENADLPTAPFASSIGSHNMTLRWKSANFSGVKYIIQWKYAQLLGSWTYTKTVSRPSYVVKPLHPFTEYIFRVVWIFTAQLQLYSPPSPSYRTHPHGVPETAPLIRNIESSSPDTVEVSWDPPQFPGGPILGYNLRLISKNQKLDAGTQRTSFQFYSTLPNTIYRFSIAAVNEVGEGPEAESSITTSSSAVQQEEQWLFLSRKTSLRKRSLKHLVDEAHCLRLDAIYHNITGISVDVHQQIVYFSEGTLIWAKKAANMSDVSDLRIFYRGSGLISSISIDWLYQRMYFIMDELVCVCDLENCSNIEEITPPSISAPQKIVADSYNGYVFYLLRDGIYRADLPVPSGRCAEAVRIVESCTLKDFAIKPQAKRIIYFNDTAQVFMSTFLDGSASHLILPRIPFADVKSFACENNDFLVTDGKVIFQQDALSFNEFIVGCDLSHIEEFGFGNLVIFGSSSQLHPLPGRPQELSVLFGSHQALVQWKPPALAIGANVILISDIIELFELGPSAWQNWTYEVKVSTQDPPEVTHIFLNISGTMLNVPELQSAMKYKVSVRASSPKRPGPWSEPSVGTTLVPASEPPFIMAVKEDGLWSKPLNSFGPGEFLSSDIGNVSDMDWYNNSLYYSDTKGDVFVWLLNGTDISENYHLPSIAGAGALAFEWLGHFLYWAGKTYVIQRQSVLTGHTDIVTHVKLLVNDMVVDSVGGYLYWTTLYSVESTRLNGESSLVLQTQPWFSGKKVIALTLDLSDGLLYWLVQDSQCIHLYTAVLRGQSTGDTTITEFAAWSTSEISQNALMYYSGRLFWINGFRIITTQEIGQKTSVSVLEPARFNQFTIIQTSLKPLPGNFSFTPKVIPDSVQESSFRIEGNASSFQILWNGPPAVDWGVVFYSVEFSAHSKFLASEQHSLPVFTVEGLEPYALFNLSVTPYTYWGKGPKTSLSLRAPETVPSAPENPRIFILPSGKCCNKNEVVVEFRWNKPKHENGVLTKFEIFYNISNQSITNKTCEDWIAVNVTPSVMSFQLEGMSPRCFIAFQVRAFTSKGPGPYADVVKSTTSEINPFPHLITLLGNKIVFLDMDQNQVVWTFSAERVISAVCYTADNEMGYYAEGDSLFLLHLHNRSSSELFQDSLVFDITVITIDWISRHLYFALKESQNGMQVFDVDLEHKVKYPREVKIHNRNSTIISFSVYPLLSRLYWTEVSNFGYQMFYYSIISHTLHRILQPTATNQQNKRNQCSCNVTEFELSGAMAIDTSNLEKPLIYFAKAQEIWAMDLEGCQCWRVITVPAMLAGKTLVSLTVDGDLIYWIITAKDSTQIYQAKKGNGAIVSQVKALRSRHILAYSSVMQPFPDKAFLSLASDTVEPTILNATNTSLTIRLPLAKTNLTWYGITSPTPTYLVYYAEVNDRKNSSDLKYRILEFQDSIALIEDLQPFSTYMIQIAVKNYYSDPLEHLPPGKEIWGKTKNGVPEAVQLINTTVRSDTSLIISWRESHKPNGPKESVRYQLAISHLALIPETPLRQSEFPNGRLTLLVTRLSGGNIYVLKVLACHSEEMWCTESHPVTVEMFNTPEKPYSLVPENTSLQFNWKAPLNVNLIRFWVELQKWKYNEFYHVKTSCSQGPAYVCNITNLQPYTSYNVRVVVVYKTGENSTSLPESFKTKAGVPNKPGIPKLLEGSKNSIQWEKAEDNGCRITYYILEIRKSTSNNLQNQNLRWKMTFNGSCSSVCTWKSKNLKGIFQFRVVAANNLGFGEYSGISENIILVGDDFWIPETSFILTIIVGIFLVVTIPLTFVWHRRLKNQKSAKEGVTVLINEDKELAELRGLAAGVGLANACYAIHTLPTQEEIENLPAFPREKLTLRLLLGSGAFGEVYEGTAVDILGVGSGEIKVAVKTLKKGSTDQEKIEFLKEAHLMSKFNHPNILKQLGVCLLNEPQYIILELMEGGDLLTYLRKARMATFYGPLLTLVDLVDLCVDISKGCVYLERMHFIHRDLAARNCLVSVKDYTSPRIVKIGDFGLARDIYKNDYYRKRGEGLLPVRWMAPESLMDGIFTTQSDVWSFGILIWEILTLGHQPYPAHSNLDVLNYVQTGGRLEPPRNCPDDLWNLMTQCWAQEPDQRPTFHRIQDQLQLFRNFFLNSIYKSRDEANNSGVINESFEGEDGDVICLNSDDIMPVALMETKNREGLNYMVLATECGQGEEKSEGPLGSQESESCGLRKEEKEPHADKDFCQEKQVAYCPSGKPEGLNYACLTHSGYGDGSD

[5] = target: T11, Ba/F3 SLC34A2-ROS1-G2032R stably transfected cell line (Homo sapiens, UniProt P08922, G2032R, cells depend on it); test: Cell proliferation inhibition (CellTiter-Glo); assay type: cell-based; settings: 72 hours, read-out: The half maximal inhibitory concentration IC50 against cells, Ba/F3 SLC34A2-ROS1-G2032R
T11 construct: fused on or other part: O95436 (Sodium-dependent phosphate transport protein 2B)
T11 sequence (P08922 whole entry G2032R, the tested form may be a part): as the sequence (P08922 whole entry, stated change not applied, the tested form may be a part) above, with G2032R counted along it

[6] = In vivo pharmacokinetic test in mice; design: species or system male CD-1 mice; settings: for Vd / AUC(0-t) / half-life / bioavailability / Cmax / Tmax: male, CD-1, mouse, plasma; for Vd: read-out: Apparent volume of distribution Vd; for AUC(0-t): read-out: Area under the curve AUC0-last; for half-life: read-out: Half life T1/2 (converted); for bioavailability: PO dose of 10 mL/kg vs IV 3 mg/kg, read-out: Bioavailability F %; for Cmax: read-out: Peak concentration Cmax; for Tmax: read-out: Time of peak concentration Tmax
Description: Experimental object: male CD-1 mice aged 7-9 weeks were used as the experimental animals, the LC/MS/MS method was used to determine the drug concentrations in plasma at different time points after single intravenous (IV) and intragastric (PO) administration of the compounds, in vivo pharmacokinetic behaviors of the compounds of the present disclosure in mice were studied, and pharmacokinetic characteristics thereof were evaluated. Drug preparation: The compounds were prepared into clear solutions with 5% DMSO+10% solutol+85% water as solvent for administration in IV (intravenous) group and PO (intragastric). The dose of the compounds: IV dose of 3 mg/kg, and PO dose of […].

ALK = target: T12, ALK (Homo sapiens, UniProt Q9UM73); test: Kinase inhibitory activity (33P-ATP filter binding, Reaction Biology Corp.); assay type: biochemical; settings: read-out: The half maximal inhibitory concentration IC50 on the kinases, ALK
T12 construct: purchased Reaction Biology Corp. (contract assay)
Description: The inhibitory activities of the compounds on TrkA, TrkC, ALK, Ros1 and other kinases were determined by Reaction Biology Corp. To reaction buffer (20 mM Hepes (pH 7.5), 10 mM MgCl2, 1 mM EGTA, 0.02% Brij35, 0.02 mg/mL BSA, 0.1 mM Na3VO4, 2 mM DTT, 1% DMSO) were sequentially added a certain concentration of substrate, coenzyme factor, kinase and test compound (10 concentrations, 3-fold serial dilutions, DMSO at a final concentration of […]), and the mixture was mixed evenly. The mixture was incubated at room temperature for 20 minutes. To the reaction mixture was added a certain concentration of ^33P-ATP to initiate the reaction, and then the mixture was incubated at room temperature for 120 minutes. The radioactivities of the reactants were determined by the method of filter binding. The final kinase activity was expressed as the ratio of the remaining kinase activity in the test sample to the kinase activity in the DMSO control group. The dose-effect curve was fitted by GraphPad software and the IC50 was calculated.

[7] = target: T13, Ba/F3 LMNA-NTRK1-F589L stably transfected cell line (Homo sapiens, UniProt P04629, F589L, cells depend on it); test: Cell proliferation inhibition (CellTiter-Glo); assay type: cell-based; settings: 72 hours, read-out: The half maximal inhibitory concentration IC50 against cells, Ba/F3 LMNA-NTRK1-F589L
T13 construct: fused on or other part: P02545 (Prelamin-A/C)

Row | GI50 [1] [nM] | GI50 [2] [nM] | IC50 (Ros-G2032R) [nM] | IC50 (Ros1) [nM] | IC50 (TrkC) [nM] | IC50 (TrkA-G667C) [nM] | IC50 (TrkA-G595R) [nM] | IC50 (TrkA) [nM] | GI50 [3] [nM] | GI50 [4] [nM] | GI50 [5] [nM] | Apparent clearance Cl ([6]; IV dose of 3 mg/kg) [mL/min/kg] | Vd ([6]; IV dose of 3 mg/kg) [L/kg] | AUC(0-t) ([6]; IV dose of 3 mg/kg) [µM·h] | half-life ([6]; IV dose of 3 mg/kg) [min] | bioavailability [6] [%] | AUC(0-t) ([6]; PO dose of 10 mL/kg) [µM·h] | Cmax ([6]; PO dose of 10 mL/kg) [µM] | Tmax ([6]; PO dose of 10 mL/kg) [min] | IC50 (ALK) [nM] | further results | SMILES
1 | 5.6 | 9.1 | 2.65 | 0.35 | 0.09 | 26.4 | 10.7 | 13.1 | 5.73 | 17.9 | 259 | 12.4 | 0.44 | 10.5 | 30 | 85 | 29.4 | 17.2 | 22.8 | 19.4 |  | C[C@H]1CNC(=O)c2cnn3ccc(nc23)N2OCC[C@@H]2c2cc(F)cnc2O1 [WX005B]
2 | 19.5 | 20.9 | 0.61 |  |  |  |  | 3.1 | 5.8 | 10.4 | 58.1 | 8.4 | 0.68 | 14 | 55.2 | 107 | 49.2 | 13 | 30 |  | GI50 [7]: 4.26 nM | O=C1N[C@@H]2COCC[C@@H]2Oc2ncc(F)cc2[C@H]2CCON2c2ccn3ncc1c3n2 [WX010B]
3 | 69.1 | 12.4 | 0.73 | 0.13 | 0.05 | 2.85 | 5.18 | 2.8 | 5.8 | 10.1 | 165 | 5.50 | 0.47 | 22.1 | 52.8 | 76 | 54.9 | 22.6 | 22.8 | 11.6 |  | O=C1N[C@@H]2CCC[C@@H]2Oc2ncc(F)cc2[C@H]2CCON2c2ccn3ncc1c3n2 [WX007A]
